Experimental data as given in patent publication US11351124B2, “Sustained release of formulations of local anesthetics” (EUPRAXIA PHARMACEUTICALS INC., priority 2015, dated 2022).
Values after ≈ are worked out from the molar mass of the structure shown. Values joined by “and” are separate entries in the source; they are usually repeats but may differ in a detail not shown here. Identical values can stand only once.

Columns and labels:
[1] = Dissolution of ropivacaine crystals in suspension, USP I apparatus; assay type: physicochemical
Experimental: Prior to assessing intrinsic dissolution of ropivacaine, the kinetics of dissolution of crystals in suspension was assessed using a USP I apparatus with either large (1 L capacity, filled to 500 mL) or small (150 mL) dissolution baths. The stir speed was 50 rpm in the large vessel method and 100 rpm in the small vessel method and temperature was 37° C. The media was PBS with 0.1% SDS. The commercial ropivacaine was dissolved rapidly with greater than 60% of the material dissolved within 30 minutes. A 17 mg sample dissolving in the large vessel reached a plateau within 4 hours, although only approximately 80% of the ropivacaine added to the experiment was accounted for.
Approximately 100-120% of the compound was accounted for in this assay. […] The Y-intercept values of the regression is representative of the magnitude of the “burst”, which was 25× higher for the commercial sample compared to the recrystallized sample. See also FIG. 1A.

[2] = Solubility of ropivacaine in various aqueous media; assay type: physicochemical
Experimental: As used herein, the aminoamide local anesthetic agents are typically in the free base form, which have lower solubility in an aqueous medium than their salt form (e.g., HCl salt). The low solubility (e.g., less than 1 mg/ml) enables a rapid formation of a saturated solution within the PVA coating or shell.

[3] = Franz cell diffusion of ropivacaine through PVA membranes; assay type: physicochemical; conditions: for Fold Decrease in D: relative to buffer with no membrane
Experimental: The diffusion behavior of the encapsulated drug in vivo can be predicted based on diffusion coefficient measured in a Franz cell diffusion system. In particular, diffusion coefficient (D) can be quantified according to Equation 1: [formula] where: • D: Diffusion coefficient (cm^2/s) • L: membrane thickness (cm) • J: flux: (μg×cm^−2×s^−1)=slope (μg/mL/h)×volume (9.8 mL)[…](3600 s/h×A cm^2) • A: surface area of the Franz cell (0.650 cm^2) • ΔC: concentration gradient of ropivacaine (μg/mL or μg/cm^3)=339.98 μg/mL (measured […] fluid concentration)−0 μg/mL (assumed […] concentration) The diffusion of ropivacaine through PVA membranes was measured using a Franz diffusion cell system. The system includes a top donor chamber containing a donor fluid, which is sealed with parafilm during the experiment; and a bottom receptor chamber containing a receptor fluid (9.8 mL of PBS pH 7.3). The donor fluid was prepared in a single batch for use in all diffusion experiments, and consisted of PBS pH 7.3. It was prepared by stirring excess solid ropivacaine in the media for 3 days, and filtering to remove the solids with a 0.22 μm filter. The assayed content was 339.98 μg/m L. The rate of appearance of ropivacaine in the Franz cell receptor fluid (the slope of the concentration versus time plot of the data multiplied by the receptor cell volume, 9.8 mL), and the measured membrane thickness (after hydration), were used to calculate the ropivacaine diffusion coefficient through the membrane, using the formula for Fick's law (Equation 1). The concentration of ropivacaine in the receptor (bottom) chamber was measured at different time points, and the diffusion coefficient was determined from Fick's first law of diffusion. Measured concentrations were converted to total drug transport (μg) by multiplying by the receptor fluid volume (9.8 mL for all experiments). FIGS. 3-5 show the diffusion rate for the first 5 hours for three PVA membranes at various degrees of crosslinking induced by various amounts of citric acid.

[4] = Intrinsic dissolution of ropivacaine, uncoated vs coated with PVA membrane (FIG. 2); assay type: physicochemical; conditions: PVA membrane Mn=20-200 kDa, 87% hydrolyzed, 12% citric acid, cured at 125° C. for 6 hours
[5] = tested on: postsurgical pain; conditions: in vivo; cited from earlier work
[6] = USP I, PBS with 0.1% SDS, 37° C.
[7] = PVA membrane 87% hydrolysis, Mn 20-220 kDa, 4% citric acid, 125 °C 6 h
[8] = PVA membrane 87% hydrolysis, Mn 20-220 kDa, 8% citric acid, 125 °C 6 h
[9] = PVA membrane 87% hydrolysis, Mn 20-220 kDa, 12% citric acid, 125 °C 6 h
[10] = PVA membrane 87% hydrolysis, Mn 20-220 kDa, 20% citric acid, 125 °C 6 h
[11] = PVA membrane 87% hydrolysis, Mn 20-220 kDa, 30% citric acid, 125 °C 6 h
[12] = PVA membrane 87% hydrolysis, Mn 146-186 kDa, 4% citric acid, 125 °C 6 h
[13] = PVA membrane 87% hydrolysis, Mn 146-186 kDa, 8% citric acid, 125 °C 6 h
[14] = PVA membrane 87% hydrolysis, Mn 146-186 kDa, 12% citric acid, 125 °C 6 h
[15] = PVA membrane >99% hydrolysis, Mn 90 kDa, 8% citric acid, 125 °C 6 h
[16] = PVA membrane >99% hydrolysis, Mn 90 kDa, 12% citric acid, 125 °C 6 h
[17] = PVA membrane >99% hydrolysis, Mn 90 kDa, 20% citric acid, 125 °C 6 h
[18] = PVA membrane >99% hydrolysis, Mn 146-186 kDa, 0% citric acid, 125 °C 6 h
[19] = PVA membrane >99% hydrolysis, Mn 146-186 kDa, 0% citric acid, 129 °C 3 h
[20] = PVA membrane >99% hydrolysis, Mn 146-186 kDa, 0% citric acid, 140 °C 6 h
[21] = PVA membrane >99% hydrolysis, Mn 146-186 kDa, 4% citric acid, 125 °C 6 h
[22] = PVA membrane >99% hydrolysis, Mn 146-186 kDa, 4% citric acid, 140 °C 6 h
[23] = PVA membrane >99% hydrolysis, Mn 146-186 kDa, 8% citric acid, 125 °C 6 h
[24] = PVA membrane >99% hydrolysis, Mn 146-186 kDa, 12% citric acid, 125 °C 6 h

CCCN1CCCC[C@H]1C(=O)Nc1c(C)cccc1C [recrystallized ropivacaine, ropivacaine]
Rate of dissolution slowed as compared to commercial ropivacaine ([1]; FIG. 1A): about 10 times
Compound accounted for in this assay [1, 6]: 100-120%
Material dissolved over the first 6 hours (gradual dissolution) [1, 6]: 60%

CCCN1CCCC[C@H]1C(=O)Nc1c(C)cccc1C [ropivacaine]
solubility ([2]; PBS + 0.05% SDS, pH 7.4, aqueous with cosolvent or surfactant or cyclodextrin): 254 ± 14 µg/mL
solubility ([2]; PBS + 68 mg/mL BSA, pH 7.4, plasma or biological fluid): 792 ± 111 µg/mL
solubility ([2]; PBS + 0.1% SDS, pH 7.4, aqueous with cosolvent or surfactant or cyclodextrin): 306 ± 18 µg/mL
solubility ([2]; PBS + 0.2% SDS, pH 7.4, aqueous with cosolvent or surfactant or cyclodextrin): 350 ± 12 µg/mL
solubility ([2]; aqueous buffer, PBS (pH 7.4)): 254 ± 13 µg/mL (≈ 926 µM)
Assayed content of saturated ropivacaine donor fluid ([3]; PBS pH 7.3, excess solid stirred 3 days, filtered 0.22 μm): 339.98 μg/m L
Diffusion of ropivacaine in PBS (diffusion coefficient) ([3]; PBS, no membrane, D defined in cm^2/s): 4.97×10^−6
D, ropivacaine diffusion coefficient [3, 7]: 1.94E−07 cm^2/s and 2.23E−07 cm^2/s
D, ropivacaine diffusion coefficient [3, 8]: 2.20E−07 cm^2/s and 3.01E−07 cm^2/s
D, ropivacaine diffusion coefficient [3, 9]: 4.30E−07 cm^2/s and 5.43E−07 cm^2/s
D, ropivacaine diffusion coefficient [3, 10]: 6.26E−07 cm^2/s and 3.64E−07 cm^2/s
D, ropivacaine diffusion coefficient [3, 11]: 4.88E−07 cm^2/s and 2.82E−07 cm^2/s
D, ropivacaine diffusion coefficient [3, 12]: 2.32E−07 cm^2/s and 2.64E−07 cm^2/s
D, ropivacaine diffusion coefficient [3, 13]: 2.30E−07 cm^2/s and 2.93E−07 cm^2/s
D, ropivacaine diffusion coefficient [3, 14]: 3.85E−07 cm^2/s and 2.90E−07 cm^2/s
D, ropivacaine diffusion coefficient [3, 15]: 1.68E−07 cm^2/s and 1.99E−07 cm^2/s
D, ropivacaine diffusion coefficient [3, 16]: 3.59E−07 cm^2/s and 3.41E−07 cm^2/s
D, ropivacaine diffusion coefficient [3, 17]: 2.38E−07 cm^2/s and 2.01E−07 cm^2/s
D, ropivacaine diffusion coefficient [3, 18]: 9.09E−08 cm^2/s and 9.21E−08 cm^2/s
D, ropivacaine diffusion coefficient [3, 19]: 1.47E−07 cm^2/s
D, ropivacaine diffusion coefficient [3, 20]: 1.33E−07 cm^2/s and 1.19E−07 cm^2/s
D, ropivacaine diffusion coefficient [3, 21]: 2.40E−07 cm^2/s and 2.15E−07 cm^2/s
D, ropivacaine diffusion coefficient [3, 22]: 1.97E−07 cm^2/s and 1.44E−07 cm^2/s
D, ropivacaine diffusion coefficient [3, 23]: 2.02E−07 cm^2/s and 1.91E−07 cm^2/s
D, ropivacaine diffusion coefficient [3, 24]: 2.41E−07 cm^2/s and 2.18E−07 cm^2/s
Decrease in diffusion coefficient compared to diffusion of ropivacaine in PBS ([3]; PVA membranes 146-186 kDa, >99% hydrolysis, after thermal curing and physical crosslinking): 50 times
Fold Decrease in D [3, 7]: 26 and 22
Fold Decrease in D [3, 8]: 23 and 17
Fold Decrease in D [3, 9]: 12 and 9
Fold Decrease in D [3, 10]: 8 and 14
Fold Decrease in D [3, 11]: 10 and 18
Fold Decrease in D [3, 12]: 21 and 19
Fold Decrease in D [3, 13]: 22 and 17
Fold Decrease in D [3, 14]: 13 and 17
Fold Decrease in D [3, 15]: 30 and 25
Fold Decrease in D [3, 16]: 14 and 15
Fold Decrease in D [3, 17]: 21 and 25
Fold Decrease in D [3, 18]: 55 and 54
Fold Decrease in D [3, 19]: 34
Fold Decrease in D [3, 20]: 37 and 42
Fold Decrease in D [3, 21]: 21 and 23
Fold Decrease in D [3, 22]: 25 and 34
Fold Decrease in D [3, 23]: 25 and 26
Fold Decrease in D [3, 24]: 21 and 23
Intrinsic dissolution compared with ropivacaine coated with PVA membrane [4]: much more rapid

CCCCN1CCCCC1C(=O)Nc1c(C)cccc1C (centres unmarked) [conventional bupivacaine, bupivacaine]
Duration of action [5]: ≤ 7 h

CCCN1CCCC[C@H]1C(=O)Nc1c(C)cccc1C [commercial ropivacaine, ropivacaine]
Time to reach dissolution plateau ([1]; 17 mg sample, large vessel (500 mL, 50 rpm), PBS with 0.1% SDS, 37° C.): ≤ 4 h
Ropivacaine added to the experiment accounted for ([1]; 17 mg sample, large vessel, at plateau): approximately 80%
Material dissolved within 30 minutes [1, 6]: greater than 60%
Magnitude of the burst (Y-intercept of regression), compared to the recrystallized sample ([1]; small vessel apparatus, burst phase within first 30 minutes): 25 ×
